This is an account of results in ChEMBL document CHEMBL3045905, “Synthesis and evaluation of curcumin analogues as cytotoxic agents” (Med Chem Res, 2010).

Series [1] is described as follows: Cytotoxicity against Mus musculus (mouse) EAC assessed as cell viability by trypan blue exclusion assay. Format: functional, Ehrlich.
The nature of series [2]: Antitumor activity against Mus musculus (mouse) EAC xenografted in Mus musculus (mouse) assessed as normalization of hemoglobin level at 50 to 250 mg/kg/day, ip measured on day 14 (reference value: 8.7 g/dl). The series is classed as functional, Ehrlich. Particulars: route intraperitoneal.
Series [3] can be described thus: Antitumor activity against Mus musculus (mouse) EAC xenografted in Mus musculus (mouse) assessed as decrease in tumor number at 50 to 250 mg/kg/day, ip measured on day 14 by Giemsa staining (reference value: 220 million/ml). As to conditions: route intraperitoneal. Format: functional, Ehrlich.
Series [4] is described as follows: Antitumor activity against Mus musculus (mouse) EAC xenografted in Mus musculus (mouse) assessed as normalization of hematocrit at 50 to 250 mg/kg/day, ip measured on day 14 (reference value: 35.5%). Format: functional, Ehrlich. Particulars: route intraperitoneal.
In series [5] the test system is Ehrlich. Nature of the series: Antitumor activity against Mus musculus (mouse) EAC xenografted in Mus musculus (mouse) assessed as normalization of WBC level at 50 to 250 mg/kg/day, ip measured on day 14 relative to untreated control. Format: functional, organism-based.
Series [6] deals with Mus musculus. Nature of the series: Toxicity in Mus musculus Swiss Albino (mouse) xenografted with Mus musculus (mouse) EAC assessed as increase in body weight at 50 to 250 mg/kg/day, ip measured on day 14. The series is classed as organism-based. Set-up: route intraperitoneal. Particulars: in vivo.
Series [7] can be described thus: Antitumor activity against Mus musculus (mouse) EAC xenografted in Mus musculus (mouse) assessed as increase in mean survival time at 50 to 250 mg/kg/day, ip after 9 days (reference value: 9.1 days). The series is classed as functional, Ehrlich. Particulars: route intraperitoneal.
The nature of series [8]: Antitumor activity against Mus musculus (mouse) EAC xenografted in Mus musculus (mouse) assessed as decrease in tumor number at 20 mg/kg/day, ip measured on day 14 by Giemsa staining (reference value: 220 million/ml). The series is classed as functional, Ehrlich. As to conditions: route intraperitoneal.
Series [9] concerns Ehrlich. Description: Antitumor activity against Mus musculus (mouse) EAC xenografted in Mus musculus (mouse) assessed as normalization of WBC level at 20 mg/kg/day, ip measured on day 14 relative to untreated control. Format: functional, organism-based.
Series [10] in a line: Antitumor activity against Mus musculus (mouse) EAC xenografted in Mus musculus (mouse) assessed as normalization of hemoglobin level at 20 mg/kg/day, ip measured on day 14 (reference value: 8.7 g/dl). The series is classed as functional, Ehrlich. As to conditions: route intraperitoneal.
Series [11] relates to Mus musculus. Nature of the series: Toxicity in Mus musculus Swiss Albino (mouse) xenografted with Mus musculus (mouse) EAC assessed as increase in body weight at 20 mg/kg/day, ip measured on day 14. Set-up: route intraperitoneal. Format: organism-based. Particulars: in vivo.
Series [12] is described as follows: Antitumor activity against Mus musculus (mouse) EAC xenografted in Mus musculus (mouse) assessed as normalization of hematocrit at 20 mg/kg/day, ip measured on day 14 (reference value: 35.5%). Format: functional, Ehrlich. Particulars: route intraperitoneal.
A short description of series [13]: Antitumor activity against Mus musculus (mouse) EAC xenografted in Mus musculus (mouse) assessed as increase in mean survival time at 20 mg/kg/day, ip after 9 days (reference value: 9.1 days). Format: functional, Ehrlich. As to conditions: route intraperitoneal.

Each structure is given as a SMILES string. Activity calls are given as the source filed them. The calls are words filed in the database; no cut-off is given here.

With `COc1cc(/C=C/c2cc(/C=C/c3ccc(O)c(OC)c3)n(N=O)n2)ccc1O`, the ED25 in [1] came to 6.7 mM.
As for `COc1ccc(NN=C(C(=O)/C=C/c2ccc(O)c(OC)c2)C(=O)/C=C/c2ccc(O)c(OC)c2)cc1`, the ED25 in [1] worked out at 3.4 mM.
As for `COc1cc(/C=C/c2cc(/C=C/c3ccc(O)c(OC)c3)[nH]n2)ccc1O` [CURCUMIN PYRAZOLE], the Activity in series [2] is 9.4 g/dL; in series [3] it was 169.6 ×10⁶ /ml; in series [4], 41%; with Mus musculus [6], “Toxic”. Further, the outcome with Ehrlich [5] was Active. The ED25 in [1] is reported as 66.7 mM. Besides, the MST in [7] stood at 14.6 days.
With `COc1cc(C2C=C(C(=NNc3ccc([N+](=O)[O-])cc3)C3=CC(c4ccc(O)c(OC)c4)ON3)NO2)ccc1O` (stereo not drawn), the ED25 in [1] worked out at 5.3 mM.
As to `COc1cc(/C=C/C(=O)C(=NNc2ccc([N+](=O)[O-])cc2)C(=O)/C=C/c2ccc(O)c(OC)c2)ccc1O`, in series [1], the ED10 stood at 2.5 mM and the ED25 was 2.8 mM.
`COc1cc(/C=C/C(=O)C(=NNc2ccc(C)cc2)C(=O)/C=C/c2ccc(O)c(OC)c2)ccc1O`: the ED10 in [1] came out at 2.4 mM.
Take `COc1cc(C2CC(C(=NNc3ccc([N+](=O)[O-])cc3)C3=NNC(c4ccc(O)c(OC)c4)C3)=NN2)ccc1O` (stereo not drawn): the ED25 in [1] turned out to be 38.9 mM.
For the compound `COc1cc(/C=C/c2cc(/C=C/c3cc(/N=N/c4ccc(Cl)cc4)c(O)c(OC)c3)n(CO)n2)cc(/N=N/c2ccc(Cl)cc2)c1O`, the ED25 in [1] is reported as 3.6 mM.
Turning to `COc1cc(/C=C/C(=O)/C(=N\Nc2ccc([N+](=O)[O-])cc2)C2=NC(=S)NC(c3ccc(O)c(OC)c3)C2)ccc1O` (stereo not drawn), the ED10 in series [1] was found to be 2.9 mM.
As for `COc1cc(/C=C/C(=O)CC(=O)/C=C/c2ccc(O)c(OC)c2)ccc1O` [CURCUMIN], in series [1], the ED10 turned out to be 3.4 mM and the ED25 came to 4.8 mM.
In the case of `COc1cc(/C=C/C(=O)/C(=N\Nc2ccc([N+](=O)[O-])cc2)C(=O)C(Br)C(Br)c2ccc(O)c(OC)c2)ccc1O` (stereo not drawn), in series [1], the ED25 is on record as 3.2 mM.
For `COc1cc(/C=C/c2cc(/C=C/c3ccc(O)c(OC)c3)n(NN)n2)ccc1O`, the ED25 in series [1] stood at 22.2 mM.
`O=c1[nH]cc(F)c(=O)[nH]1` [FLUOROURACIL]: the Activity is 123 ×10⁶ /ml in series [8], 10 g/dL in series [10], “Toxic” with Mus musculus [11] and 42.3% in series [12]. In addition, the result in the series with Ehrlich [9] was Active. Further, the MST in series [13] stood at 16.7 days.
As for `COc1cc(/C=C/C(=O)C(=NNc2ccc(Cl)cc2)C(=O)/C=C/c2ccc(O)c(OC)c2)ccc1O`, the ED25 in [1] is given as 3.2 mM.
The same measure, in the same setting: with `COc1cc(C2CC(C(=NNc3ccc([N+](=O)[O-])cc3)C3=NC(=S)NC(c4ccc(O)c(OC)c4)C3)=NC(=S)N2)ccc1O` (stereo not drawn) the figure was 4.8 mM.
